From patent publication US6583147B1, “Pyrazolopyrimidinone derivatives for the treatment of impotence” (Dong A Pharm Co., Ltd., priority 1998, dated 2003) come the findings set out here.

The term pIC50 denotes the IC50 on a negative log10 scale, so that one unit is a factor of ten.

Data set [1] deals with T1, Phosphodiesterase-3 enzyme (PDE 3) (Oryctolagus cuniculus, UniProt G1ST54).
T1 construct: The supernatant was separated by DEAE-cellulose column chromatography (Whatman DE52 bead); from tissue; host or cells: rabbit platelets
T1 sequence (G1ST54 1-1128): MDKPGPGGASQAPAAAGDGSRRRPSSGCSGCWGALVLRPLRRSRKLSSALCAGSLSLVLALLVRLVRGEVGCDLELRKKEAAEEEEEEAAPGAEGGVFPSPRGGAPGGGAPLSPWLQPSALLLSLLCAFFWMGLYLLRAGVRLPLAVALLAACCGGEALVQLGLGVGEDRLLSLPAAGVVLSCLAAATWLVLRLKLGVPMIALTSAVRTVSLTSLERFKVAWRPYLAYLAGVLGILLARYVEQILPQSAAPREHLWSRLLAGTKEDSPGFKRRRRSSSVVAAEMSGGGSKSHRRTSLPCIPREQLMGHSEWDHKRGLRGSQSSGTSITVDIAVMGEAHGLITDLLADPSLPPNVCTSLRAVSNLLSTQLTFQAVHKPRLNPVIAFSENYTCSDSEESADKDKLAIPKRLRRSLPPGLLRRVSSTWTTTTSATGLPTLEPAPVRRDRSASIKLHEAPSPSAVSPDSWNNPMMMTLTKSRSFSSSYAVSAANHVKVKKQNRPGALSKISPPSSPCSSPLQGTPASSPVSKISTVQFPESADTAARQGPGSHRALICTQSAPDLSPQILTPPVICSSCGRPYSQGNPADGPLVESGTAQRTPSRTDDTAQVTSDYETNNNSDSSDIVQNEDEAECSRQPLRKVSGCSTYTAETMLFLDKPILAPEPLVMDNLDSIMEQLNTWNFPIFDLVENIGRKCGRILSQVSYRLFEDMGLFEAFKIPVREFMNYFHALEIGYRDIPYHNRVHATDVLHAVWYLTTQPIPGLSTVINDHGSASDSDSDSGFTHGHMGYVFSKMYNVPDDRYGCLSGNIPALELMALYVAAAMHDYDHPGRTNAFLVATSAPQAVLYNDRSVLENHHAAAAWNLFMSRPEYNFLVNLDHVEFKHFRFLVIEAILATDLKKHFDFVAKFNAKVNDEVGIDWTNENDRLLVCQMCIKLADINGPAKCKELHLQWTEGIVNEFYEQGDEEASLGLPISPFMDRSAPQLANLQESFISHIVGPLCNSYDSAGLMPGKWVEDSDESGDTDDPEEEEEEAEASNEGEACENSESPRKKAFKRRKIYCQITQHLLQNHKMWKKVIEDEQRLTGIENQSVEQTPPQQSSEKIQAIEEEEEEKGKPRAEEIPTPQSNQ
As to the kind of experiment: Test for phosphodiesterase-3 (PDE 3) activity. It counts as biochemical. Conditions: PDE 3 fraction from platelets of a rabbit. As to the method: Phosphodiesterase-3 enzyme (PDE 3) was separated from platelets of a rabbit. About 60 ml of blood was collected from a puncture of the abdominal artery of a rabbit in heparinized syringes. Platelet-rich plasma was harvested by centrifugation for 5 min at 450×g and further centrifuged for 15 min at 1,200×g to precipitate the platelets. The platelets were resuspended in homogenizing buffer (50 mM Tris-HCl, 1 mM MgCl2, pH 7.4), homogenized at 4° C. and ultrasonicated (30 sec/ml). The homogenized solution was centrifuged (105,000×g) for 1 hr at 4° C. to obtain the supernatant in which PDE was dissolved. The supernatant was separated by DEAE-cellulose column chromatography (Whatman DE52 bead) by using eluent (50 mM Tris-HCl, 3.75mM2-mercaptoethanol, pH 6.0) with concentration gradient of 0-1 M sodium acetate to elute PDE isozymes. The PDE activity was measured on the each column fraction by the following process to separate PDE 3 fraction and the inhibition for PDE 3 of the compounds of formula 1 was measured by using the fraction.
To 1.5 ml tube containing 100 ul of reaction mixture (15 mM Tris-HCl, 5 mM MgCl2, 0.5 mg/ml BSA, pH 7.4) were added appropriate amount of PDE 3 fraction and PDE inhibitor and the solution was mixed well. After [^3H]-cAMP or [^3H]-cGMP (500 nM, 2 uCi/ml) was added, the mixture was reacted in incubator of 30° C. for about 1 hour and the reaction was quenched by putting the tube into boiling water for about 45 seconds to 2 min. The tube was chilled in ice bath for about 5 min. To this tube was added snake venom (1 mg/ml, 100 ul) or 5′-nucleotidase (0.1 unit/tube) and the mixture was reacted in incubator of 37° C. for 10 min and chilled in ice bath. 3 times volume of methanol to the resin was added to the anion exchange resin (Bio-Rad resin, AG1-X2, 200-400 mesh) which had been already washed with 0.5 N HCl, H2O, 0.5 N NaOH, H2O, 0.5 N HCl and H2O in order and adjusted to pH 5. Then 1 ml of the pretreated resin was added to the each tube with vortexing. The mixture was left at 4° C. for 15 min with occasional vortexing and centrifuged (10,000 rpm) for about 5 min to sediment the resin. The supernatant (700 ul) was transferred to a liquid scintillation vial, and mixed with 10 ml of scintillation cocktail. After stabilizing the mixture by leaving it overnight, the radioactivity of the tube was measured by β-counter.

Data set [2] is described as follows: Acute oral toxicity test in rats. Conditions: SD, rat, in vivo, 1 g/kg; rats, oral single dose; read-out: lethal dose (LD50) of oral administration.
The test system of the next data set is rats. As to the kind of experiment: Penile erection test using rats. It counts as in vivo, rat. Conditions: oral single dose 10 mg/kg in 0.5% methyl cellulose, observed for 2 hours.
Data set [3] deals with T2, Phosphodiesterase-5 enzyme (PDE 5) (Homo sapiens, UniProt O76074).
T2 construct: separated by HPLC (Mono Q anion exchange column) with concentration gradient of 0-500 mM NaCl to elute PDE isozymes; from tissue; host or cells: human corpus cavernosal tissue
Kind of data set: Test for phosphodiesterase-5 (PDE 5) activity. It counts as biochemical. Conditions: PDE 5 fraction from human corpus cavernosal tissues.

pIC50: −log10 of the molar value.

In data set [1], `CCCc1nn(C)c2c(=O)[nH]c(-c3cc(S(=O)(=O)NCc4cccnc4)ccc3OCC)nc12` [Example 47, 5-[2-ethoxy-5-(3-pyridylmethylamidosulfonyl)phenyl]-1-methyl-3-propyl-1,6-dihydro-7H-pyrazolo(4,3-d)pyrimidin-7-one] had a pIC50 of 4.68. Further, in data set [2], the LD50 was above 1000 mg/kg. Further, in the data set on rats, the “PEI (penile erection index)” value is recorded as 200.0 ± 100.0 and the “genital grooming (number of genital groomings)” value (“genital grooming” below) is reported as 3.0 ± 1.0. Further, the pIC50 in data set [3] was 8.56.
In data set [1], `CCCc1nn(CC)c2c(=O)[nH]c(-c3cc(S(=O)(=O)Nc4ccc(F)cc4)ccc3OCC)nc12` [Example 33, 5-[2-ethoxy-5-(4-fluorophenylamidosulfonyl)phenyl]-1-ethyl-3-propyl-1,6-dihydro-7H-pyrazolo(4,3-d)pyrimidin-7-one] showed a pIC50 of 3.73. In data set [2], the LD50 is above 1000 mg/kg. In the data set with rats, the “PEI (penile erection index)” value is on record as 233.3 ± 57.7 and the “genital grooming” value is 2.7 ± 0.6. Besides, the pIC50 in data set [3] was 7.71.
On the same counts, the results for `CCCCNS(=O)(=O)c1ccc(OCC)c(-c2nc3c(CCC)nn(C)c3c(=O)[nH]2)c1` [Example 9, 5-[2-ethoxy-5-(butylamidosulfonyl)phenyl]-1-methyl-3-propyl-1,6-dihydro-7H-pyrazolo(4,3-d)pyrimidin-7-one] are below 3.65, above 1000 mg/kg, 200.0 ± 100.0, 4.7 ± 1.2 and 7.97.
Compound `CCCc1nn(C)c2c(=O)[nH]c(-c3cc(S(=O)(=O)Nc4cccnc4)ccc3OCC)nc12` [Example 38, 5-[2-ethoxy-5-(3-pyridylamidosulfonyl)phenyl]-1-methyl-3-propyl-1,6-dihydro-7H-pyrazolo(4,3-d)pyrimidin-7-one] gave a pIC50 in data set [1] of 3.68. The LD50 in data set [2] is above 1000 mg/kg. Moreover, in the data set on rats, the “PEI (penile erection index)” value is reported as 233.3 ± 230.9 and the “genital grooming” value is listed as 2.7 ± 2.9. Besides, in data set [3], the pIC50 was 8.09.
The like results for `CCCc1nn(C)c2c(=O)[nH]c(-c3cc(S(=O)(=O)Nc4ccncc4)ccc3OCC)nc12` [Example 34, 5-[2-ethoxy-5-(4-pyridylamidosulfonyl)phenyl]-1-methyl-3-propyl-1,6-dihydro-7H-pyrazolo(4,3-d)pyrimidin-7-one] were, in that order, 3.74, above 1000 mg/kg, 166.7 ± 57.7, 1.3 ± 0.6 and 8.46.
On the same counts, the results for `CCOc1ccc(S(=O)(=O)NC2CCN(C)C2)cc1-c1nc2c(CC(C)C)nn(C)c2c(=O)[nH]1` (centres unmarked) [Example 54, 5-[2-ethoxy-5-(1-methyl-3-pyrrolidinylamidosulfonyl)phenyl]-1-methyl-3-isobutyl-1,6-dihydro-7H-pyrazolo(4,3-d)pyrimidin-7-one] are below 3.69, above 1000 mg/kg, 233.3 ± 230.9, 2.7 ± 2.9 and 7.41.
The like results for `CCCOc1ccc(S(=O)(=O)NC2CCN(C)C2)cc1-c1nc2c(CCC)nn(C)c2c(=O)[nH]1` (centres unmarked) [Example 53, 5-[2-propyloxy-5-(1-methyl-3-pyrrolidinylamidosulfonyl)phenyl]-1-methyl-3-propyl-1,6-dihydro-7H-pyrazolo(4,3-d)pyrimidin-7-one] were, in that order, below 3.69, above 1000 mg/kg, 300.0 ± 200.0, 2.7 ± 2.1 and 7.68.
With `CCOc1ccc(S(=O)(=O)NCC2CCN(CC)C2)cc1-c1nc2c(CC(C)C)nn(C)c2c(=O)[nH]1` (centres unmarked) [Example 66, 5-[2-ethoxy-5-(1-ethyl-3-pyrrolidinylmethylamidosulfonyl)phenyl]-1-methyl-3-isobutyl-1,6-dihydro-7H-pyrazolo(4,3-d)pyrimidin-7-one], the negative logarithm of the IC50 (pIC50) in data set [1] is 4.04. Moreover, in data set [2], the LD50 is above 1000 mg/kg. Besides, in the data set on rats, the “PEI (penile erection index)” value is given as 175.0 ± 95.7 and the “genital grooming” value was 2.8 ± 0.5. In data set [3], this compound showed a pIC50 of 7.45.
As for `CCCOc1ccc(S(=O)(=O)Nc2cccnc2)cc1-c1nc2c(CCC)nn(C)c2c(=O)[nH]1` [Example 39, 5-[2-propyloxy-5-(3-pyridylamidosulfonyl)phenyl)-1-methyl-3-propyl-1,6-dihydro-7H-pyrazolo(4,3-d)pyrimidin-7-one], the pIC50 in data set [1] is 4.38. The LD50 in data set [2] is above 1000 mg/kg. Further, in the data set with rats, the “PEI (penile erection index)” value is given as 166.7 ± 57.7 and the “genital grooming” value was determined as 1.3 ± 1.5. This compound also had a pIC50 in data set [3] of 8.94.
The like results for `CCOc1ccc(S(=O)(=O)Nc2cccnc2)cc1-c1nc2c(CC(C)C)nn(C)c2c(=O)[nH]1` [Example 41, 5-[2-ethoxy-5-(3-pyridylamidosulfonyl)phenyl]-1-methyl-3-isobutyl-1,6-dihydro-7H-pyrazolo(4,3-d)pyrimidin-7-one] were, in that order, 5.00, above 1000 mg/kg, 177.8 ± 203.7, 1.7 ± 1.5 and 8.64.
